Results published in patent publication US7906506B2, “Substituted chiral fused [1,2] imidazo [4,5-c] ring compounds and methods” (3M Innovative Properties Company, priority 2006, dated 2011).

| melting point | Structure (SMILES) |
| --- | --- |
| 243 to 268 °C | CCCC1OC[C@H](C)n2c1nc1c(N)nc3ccccc3c12 (stereo partly drawn) [Example 2, (11S)-1-Methyl-8-propyl-10,11-dihydro-8H-[1,4]oxazino[4′,3′:1,2]imidazo[4,5-c]quinolin-6-amine] |
| 218 to 223 °C | CC1OC[C@H](C)n2c1nc1c(N)nc3ccccc3c12 (stereo partly drawn) [Example 1, (11S)-8,11-Dimethyl-10,11-dihydro-8H-[1,4]oxazino[4′,3′:1,2]imidazo[4,5-c]quinolin-6-amine] |
